Experiments:
Rats = assay: Diuresis in normally hydrated rats; type: in vivo
Protocol: In the course of various studies conducted on animals to show the lack of renal impairment, a test was carried out to compare the diuresis in normally hydrated rats treated orally for 8 consecutive days with amtolmeting guacyl and diclofenac, which is also a NSAID. […] It is to be stressed that the behaviour of diclofenac is completely in line with the behaviour of a NSAID as known in the art, that is to say to markedly reduce the diuresis, while that of amtolmeting guacyl is completely unforeseeable.
Repeated doses (one per day) for 8 days increased diuresis in the treated rats by 35% (see fig. 13).

rat = assay: Carcinogenesis studies, gavage over the life-span; type: in vivo; conditions: gavage for a period covering the animal's life-span

For `COc1ccccc1OC(=O)CNC(=O)Cc1ccc(C(=O)c2ccc(C)cc2)n1C` [MED 15, 2-methoxyphenyl-1-methyl-5p-methylbenzoylpyrrol-2-acetamido acetate], the increased diuresis (Rats; repeated doses (one per day) for 8 days) was 35%, the increased diuresis (Rats; single dose, average) was 10% and the diuresis (Rats; treated orally for 8 consecutive days, fig. 13) was “definite increase in diuresis”. The Carcinogenesis (rat) was “innocuity”.
